Experimental findings from paper PMC5889910, “β-Carboline Silver Compound Binding Studies with Human Serum Albumin: A Comprehensive Multispectroscopic Analysis and Molecular Modeling Study” (Bioinorganic Chemistry and Applications, 2018) are described below.

Common to all, as to type: binding
Test [1] addresses T1, human serum albumin (HSA) (Homo sapiens, UniProt P02768).
T1 construct: I (residues 1–195), II (196–383), and III (384–585); purchased Sigma
The experiment in a line: Fluorescence quenching of HSA with addition of extra anions (KClO4, KNO3). Particulars: for K SV / K, binding constant / n, number of binding sites: HSA 5 µM; for effect of anion salt alone on HSA structure: without Ag and Hnor, up to the concentration maximum used in the experiments. Here is the method:
(§1) The samples of HSA were prepared in 20 mM phosphate buffer (pH 7.4), whereas silver complexes (1 mM) stock solution were prepared in DMSO and further diluted in 20 mM phosphate buffer to reach the desired concentration. In all the samples, the final concentration of DMSO was not more than 1%. The concentration of HSA was determined using the Beer–Lambert law with the molar extinction coefficient of 36500 M^−1·cm^−1 at 280 nm. To study structural changes in HSA by the addition of [Ag(I)(Hnor)2](anion) compounds, the UV absorption spectra were measured, by variation of the concentration of the [Ag(I)(Hnor)2](anion) compounds, while keeping the concentration of HSA constant. UV absorption spectra, from 240 nm to 320 nm, were recorded on a Perkin–Elmer Lambda 45 spectrophotometer at 25°C. Quartz cuvettes of 1 cm path length were used for the measurements. Fluorescence measurements were performed on a Hitachi spectrofluorometer (Model F 7000) equipped with a PC. The fluorescence spectra were collected at 25°C with a path length cell of 1 cm. The slit width used was 5 nm with a protein concentration of 5 µM. The used excitation wavelength for the protein was 295 nm.
Given the fact that the highest anticancer activity and also the most substantial HSA interaction takes place in case of the perchlorate and nitrate salts, it was decided to add extra perchlorate (and also nitrate) for all cases and to study the effect on the binding affinity. So, we carried out two sets of experiments and studied the binding propensity of Ag(I) compounds with HSA. In one experiment, the extra ClO4 ^− anion was added in a 1 : 4 ratio, compared to the Ag compound. In a second experiment, we used additional nitrate together with the Ag(I) compounds. Details are given in Figures 6 and 7, and the quite similar details for the other 3 compounds are presented in Figures S5 and S6 in Supplementary Materials.
To determine the role of only the anions (i.e., without Ag and Hnor), we also used KClO4 and KNO3 and studied their HSA binding by adding variable amounts of anions to the concentration maximum used in the experiments. […] When the extra anions + compounds were titrated, the results obtained did show an exponential increase in binding affinity of the Ag(I) compounds.
The binding strength was evaluated by calculating the Stern–Volmer constant (K sv), a number of the binding sites (n) and Gibbs free energy (ΔG); (Table 2). […] However, no correlation with the size of these four anions is seen.

Test [2] addresses T1, human serum albumin (HSA). Kind of test: Far-UV circular dichroism of HSA, α-helix content. The arrangement: unit of the concentration uncertain. As to conditions: HSA 20 µM, free HSA 67.03. As for the experimental part:
CD measurements were carried out on a Jasco spectropolarimeter (Model J-815) equipped with a microcomputer. The instrument was calibrated with D-10-camphorsulfonic acid. All the CD measurements were performed at 25°C with a thermostatically controlled cell holder, attached to a Neslab RTE-110 water bath with an accuracy of ±0.1°C. Spectra were collected with a scan speed of […] and a response time of 1 s. Each spectrum was taken as the average of three scans. The far-UV CD spectra were measured at a protein concentration of 20 µM at a path length of 1 cm.
(§2) All the spectra were recorded after equilibration of the reaction mixture for 5 min.
The CD signal, expressed in millidegree, obtained over the wavelength range of 190–250 nm, was converted to a mean residue ellipticity (MRE, θ), using the following conversion:(5) MRE=θobs mdeg/10×n×Cp×l, where θ obs is the CD in millidegree, the number of amino acid residues (585) is given by n, “l” is the path length (cm), and C p is the molarity. The unit of MRE is deg·cm^2·dmol^−1.
In general terms: Circular dichroism is widely used to follow secondary structure.

The target in test [3] is T1, human serum albumin (HSA). Kind of test: UV absorption spectra of HSA with Ag(I) compounds. As to conditions: HSA 5 µM, with hyperchromism. As for the experimental part: as §1, §2
For test [4], the target named is T1, human serum albumin (HSA). Kind of test: Fluorescence quenching titration of HSA (Stern–Volmer analysis). Particulars: for K SV, Stern–Volmer quenching constant: 20 mM phosphate buffer pH 7.4, 25°C, excitation 295 nm; for redshift at the maximal emission wavelength of Tyr and Trp residues of HSA: increasing compound concentration; for K q, bimolecular quenching rate constant: Kq = KSV/τ0, τ0 = 10^−8 s, 25°C; for ∆G, standard free energy change of binding: ΔG = −2.303 RT logK. Here is the method:
as §1, §2
The interaction between metal compounds and proteins has been widely investigated by using fluorescence spectroscopies. The luminescence response of HSA, upon addition of different concentrations of Ag(I) compounds, was studied in 20 mM phosphate buffer by using an emission titration experiment. Preliminary luminescence studies of the four starting Ag compounds 1–4 have been reported earlier by some of us. The excitation at 290 nm for all four compound results in a strong luminescence band at around 370 nm. The fluorescence studies of the ligand “Hnor” as well as the free silver salt, “AgNO3,” were also studied under the same conditions to compare the effect of separate entities with a combination of the two. Upon excitation at 295 nm, fluorescence intensity around 340 nm is known to reflect the changes of the tryptophan residue microenvironment. […] In Figure S3, similar data are presented for compounds 2–4, with only marginal differences upon anion variation.
The interaction of the Ag compounds with HSA was quantified; the Stern–Volmer equation has been employed:(1) F0/F=1+KSVQ=1+Kqτ0Q, where F 0 and F are the steady-state fluorescence intensities in the absence and presence of quencher at 340 nm, respectively. K sv is the Stern–Volmer quenching constant, K q stands for bimolecular quenching constant, τ 0 is the lifetime of the fluorophore in the absence of quencher, and [Q] is the concentration of quencher (i.e., the Ag compound). By calculating the quenching rate constants, K q, one can distinguish between the static quenching and the dynamic quenching, and this was evaluated by using the following equation:(2) Kq=KSV/τ0.
The value of tau(zero), τ 0, for biopolymers is known to be 10^−8 s. The Stern–Volmer quenching constant (K sv) for the fluorometric titration of the Ag(I) compounds into HSA solution was calculated from the linear relationship between F 0/F and [Ag(I)(Hnor)2]ClO4 (Figure 5) and enlisted in Table 1. In Figure S4, similar data are presented for compounds 2–4, confirming the above observations.
The equilibrium between free and bound molecules, when small molecules bind independently to a set of similar sites on a macromolecule, was ascertained by a modified Stern–Volmer equation [42]:(3) logF0−F/F=logK+n logQ, where K and n are the binding constant and the number of binding sites, respectively. A plot of log(F 0 − F/F) versus log[Q] was used to determine the value of K and n (inset in Figure 5). Several forces, like electrostatic, hydrogen bonds, weak van der Waals, hydrophobic, and steric contacts, can be thought of being responsible for the interaction between the albumin and Ag compounds. […]

Setting [5] is: Set A: +extra ClO4− (KClO4, 1:4 ratio).
Where [6] appears, read: Set B: +extra NO3− (KNO3, 1:4 ratio).
Setting [7] is: compound concentration 20 (unit uncertain).
The mark [8] stands for this setting: compound concentration 40 (unit uncertain).
The mark [9] stands for this setting: compound concentration 60 (unit uncertain).
The mark [10] stands for this setting: compound concentration 80 (unit uncertain).
Where [11] appears, read: compound concentration 100 (unit uncertain).
Where [12] appears, read: modified Stern–Volmer equation, HSA 5 µM, pH 7.4, 25°C.

T1 sequence (P02768 25-609): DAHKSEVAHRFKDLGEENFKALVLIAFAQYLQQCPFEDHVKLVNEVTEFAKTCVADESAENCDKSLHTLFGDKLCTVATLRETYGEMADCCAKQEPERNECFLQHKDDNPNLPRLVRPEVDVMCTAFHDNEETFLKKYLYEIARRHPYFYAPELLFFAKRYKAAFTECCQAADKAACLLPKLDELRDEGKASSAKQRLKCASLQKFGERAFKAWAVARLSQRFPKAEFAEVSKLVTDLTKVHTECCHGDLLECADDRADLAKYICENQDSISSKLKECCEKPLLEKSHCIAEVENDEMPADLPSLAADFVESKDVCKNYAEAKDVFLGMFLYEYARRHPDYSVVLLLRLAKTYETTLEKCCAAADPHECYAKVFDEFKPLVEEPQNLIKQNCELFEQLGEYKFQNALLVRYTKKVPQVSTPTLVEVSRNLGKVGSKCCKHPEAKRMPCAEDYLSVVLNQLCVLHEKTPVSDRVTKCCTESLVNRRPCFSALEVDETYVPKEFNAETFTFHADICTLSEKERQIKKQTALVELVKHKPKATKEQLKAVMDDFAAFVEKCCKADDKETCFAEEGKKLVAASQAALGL

For `O=[N+]([O-])[O-].[Ag+].c1ccc2c(c1)[nH]c1cnccc12.c1ccc2c(c1)[nH]c1cnccc12` [Compound 2, [Ag(Hnor)2](NO3)], the “K SV” value in test [1] (setting [5]) is 1.29 10^7 M^−1; in test [1] (setting [6]), 1.24 10^7 M^−1. The “K, binding constant” value in test [1] (setting [5]) is 6.05 10^10 M^−1; in test [1] (setting [6]), 0.66 10^10 M^−1; in test [4] (setting [12]), 3.64 10^6 M^−1. Further, the entries for the “n, number of binding sites” value in test [1] (setting [5]), in test [1] (setting [6]) and in test [4] (setting [12]) were 1.58, 1.53 and 1.0, respectively. Also, the “∆G” value in test [1] (setting [6]) was -56.05 kJ/mol. The “% α-helix of HSA” value was found to be 62.85% in test [2] (setting [7]); 61.61% in test [2] (setting [8]); 58.41% in test [2] (setting [9]); 52.02% in test [2] (setting [10]); 42.73% in test [2] (setting [11]). Moreover, the “redshift (bathochromic effect) of HSA UV absorbance” value (shortened to “redshift (bathochromic effect)”) in test [3] is 5 nm. For the same molecule, the “K SV, Stern–Volmer quenching constant” value in test [4] (HSA 5 µM) is given as 5.34 10^5 M^−1. For the same molecule, in test [4] (HSA 5 µM), the “redshift at the maximal emission wavelength of Tyr and Trp residues of HSA” value (from here on “redshift … of Tyr and Trp residues of HSA”) amounted to 5 nm. The “K q, bimolecular quenching rate constant” value in test [4] (HSA 5 µM) is 53.4 10^12 M^−1·s^−1. In addition, the “∆G, standard free energy change of binding” value in test [4] was -37.44 kJ/mol.
Take `c1ccc2c(c1)[nH]c1cnccc12` [Hnor, 9H-pyrido[3,4-b]indole, reference compound]: in test [4] (HSA 5 µM), the “K SV, Stern–Volmer quenching constant” value is listed as 2.95 10^5 M^−1 and the “K q, bimolecular quenching rate constant” value was 29.5 10^12 M^−1·s^−1. For the same molecule, the “n, number of binding sites” value in test [4] (setting [12]) is reported as 1.0. Moreover, in test [4] (modified Stern–Volmer equation, HSA 5 µM, pH 7.4, 25°C, read-out: K, binding constant (converted)), the Kd was 3.03 µM. Besides, in test [4], the “∆G, standard free energy change of binding” value is -31.40 kJ/mol.
As to `[K+].[O-][Cl+3]([O-])([O-])[O-]` [KClO4, reference compound], the “effect of anion salt alone on HSA structure” value in test [1] was “negligible perturbance of the HSA structure”.
Consider `F[B-](F)(F)F.[Ag+].c1ccc2c(c1)[nH]c1cnccc12.c1ccc2c(c1)[nH]c1cnccc12` [Compound 4, [Ag(Hnor)2](BF4)], for which the entries for the “K SV” value in test [1] (setting [5]) and in test [1] (setting [6]) were 1.85 10^7 M^−1 and 1.38 10^7 M^−1, respectively. Besides, the “K, binding constant” value was 1.19 10^10 M^−1 in test [1] (setting [5]), 0.38 10^10 M^−1 in test [1] (setting [6]) and 1.14 10^6 M^−1 in test [4] (setting [12]). Further, the “n, number of binding sites” value in test [1] (setting [5]) was 1.69; in test [1] (setting [6]), 1.48; in test [4] (setting [12]), 1.1. Besides, in test [1] (setting [6]), the “∆G” value is -54.67 kJ/mol. In addition, the “% α-helix of HSA” value in test [2] (setting [7]) is given as 65.25%; in test [2] (setting [8]), 63.82%; in test [2] (setting [9]), 61.53%; in test [2] (setting [10]), 56.66%; in test [2] (setting [11]), 47.52%. Besides, the “redshift (bathochromic effect)” value in test [3] came to 6 nm. Moreover, the “K SV, Stern–Volmer quenching constant” value in test [4] (HSA 5 µM) is 3.97 10^5 M^−1. The “redshift … of Tyr and Trp residues of HSA” value in test [4] (HSA 5 µM) came out at 4 nm. In test [4] (HSA 5 µM), the “K q, bimolecular quenching rate constant” value is 39.7 10^12 M^−1·s^−1. In addition, in test [4], the “∆G, standard free energy change of binding” value is -34.55 kJ/mol.
Regarding `CC#N.F[P-](F)(F)(F)(F)F.[Ag+].c1ccc2c(c1)[nH]c1cnccc12.c1ccc2c(c1)[nH]c1cnccc12` [Compound 3, [Ag(Hnor)2(MeCN)](PF6)], the “∆G” value in test [1] (setting [5]) is -55.13 kJ/mol; in test [1] (setting [6]), -51.01 kJ/mol. Also, the “K SV” value in test [1] (setting [5]) was 0.84 10^7 M^−1; in test [1] (setting [6]), 0.80 10^7 M^−1. The “K, binding constant” value in test [1] (setting [5]) is recorded as 0.46 10^10 M^−1; in test [1] (setting [6]), 0.08 10^10 M^−1; in test [4] (setting [12]) it was 0.55 10^6 M^−1. For the same molecule, the “n, number of binding sites” value in test [1] (setting [5]) was determined as 1.55; in test [1] (setting [6]) it was 1.41; in test [4] (setting [12]) it was 1.2. The “% α-helix of HSA” value was 63.57% in test [2] (setting [7]); 62.57% in test [2] (setting [8]); 60.37% in test [2] (setting [9]); 56.31% in test [2] (setting [10]); 47.18% in test [2] (setting [11]). For the same molecule, the “redshift (bathochromic effect)” value in test [3] is recorded as 5 nm. Also, in test [4] (HSA 5 µM), the “K SV, Stern–Volmer quenching constant” value was 4.53 10^5 M^−1. Also, the “redshift … of Tyr and Trp residues of HSA” value in test [4] (HSA 5 µM) amounted to 4 nm. Also, the “K q, bimolecular quenching rate constant” value in test [4] (HSA 5 µM) is recorded as 45.3 10^12 M^−1·s^−1. Also, in test [4], the “∆G, standard free energy change of binding” value was -32.73 kJ/mol.
Regarding `O=[N+]([O-])[O-].[K+]` [KNO3, reference compound], the “effect of anion salt alone on HSA structure” value in test [1] is recorded as “negligible perturbance of the HSA structure”.
In the case of `O=[N+]([O-])[O-].[Ag+]` [AgNO3, reference compound], in test [4] (HSA 5 µM), the “K SV, Stern–Volmer quenching constant” value is on record as 3.10 10^5 M^−1 and the “K q, bimolecular quenching rate constant” value was 31.0 10^12 M^−1·s^−1. In test [4] (setting [12]), the “K, binding constant” value is 1.94 10^6 M^−1 and the “n, number of binding sites” value worked out at 1.1. The “∆G, standard free energy change of binding” value in test [4] is -35.88 kJ/mol.
